Laboratory results taken from US20230295162A1 (EÖTVÖS LORÁND TUDOMÁNYEGYETEM, priority 2020, published 2023).
Read-outs that look alike come from different tables or passages of the source.

Assays:
[1] = tested on: PANC-1 (human pancreatic carcinoma) cells; assay: Impedance-based viability assay (xCELLigence SP), long treatment; type: cell-based; settings: 72 h, read-out: cytotoxicity expressed in IC50, PANC-1
From the text: (Gibco®/Invitrogen Corporation, New York, NY, USA).
Data obtained from each experiment represent mathematical averages.

[2] = tested on: EBC-1 lung cancer cell line; assay: High-throughput screening, CellTiter-Glo cell viability assay at 100 nM; type: cell-based, human; settings: compounds at 100 nM, 72 h, read-out: cytotoxicity expressed in IC50, EBC-1 (results of High throughput screening)
Method: (§1) EBC-1 (obtained from JRCB, https://cellbank.nibiohn.go.jp/english/) and H2228 (obtained from ATCC https://www.lgcstandards-atcc.org/) cell lines were maintained according to the instructions provided by JRCB and ATCC in a 5% CO2 humidified incubator maintained at 37° C. temperature. Effect of compounds on cell viability was measured via CellTiter-Glo® luminescent cell viability assay (Promega, Madison, WI, USA). Cells were plated at 1000 cells/well onto a flat-bottomed, white 96 well plate (BRANDplates, cat. no.: 781965). After 24 h, cells were treated for 72 h with the compounds at 100 nM concentration. After the treatment, medium was removed and CellTiter-Glo® reagent was added. Untreated cells were used as control. The luminescence signal was recorded using a microplate reader (BioTek Synergy 2 Multi-Mode Reader, BioTek, Winooski, VT, USA). Cell viability data (% of untreated control cells) was evaluated with Microsoft Excel.

[3] = tested on: H2228 lung cancer cell line; assay: as above; type: cell-based, human; settings: compounds at 100 nM, 72 h, read-out: cytotoxicity expressed in IC50, H2228 (results of High throughput screening)
Method: as §1

[4] = tested on: COLO-205 (human colorectal adenocarcinoma) cells; assay: Colorimetric alamarBlue assay, long treatment; settings: COLO 205, 72 h, read-out: cytotoxicity expressed in IC50, COLO-205
[5] = tested on: A2058 (human metastatic melanoma) cells; assay: Colorimetric alamarBlue assay, long treatment; settings: read-out: cytotoxicity expressed in IC50, A-2058

Compound | IC50 [1] [µM] | IC50 ([2]; Homo sapiens, EBC-1, HTS) [µM] | IC50 ([3]; Homo sapiens, NCI-H2228, HTS) [µM] | IC50 ([5]; Homo sapiens, A2058, 72 h) [µM] | other results
Nc1ccc(CN2C(=O)C3=C(CCN(Cc4cccc(F)c4)C3)N3CCN=C23)cc1 [I/84] | 23 | > 0.1 | > 0.1 | – | –
[N-]=[N+]=Nc1ccc(CN2C(=O)C3=C(CCN(Cc4ccccc4)C3)N3CCN=C23)cc1 [I/104] | 0.5 | – | – | 2.5 | IC50 [4]: 0.25 µM
O=C1C2=C(CCN(Cc3ccccc3)C2)N2CCN=C2N1Cc1ccc([N+](=O)[O-])cc1F [I/48] | 6.16 | > 0.1 | > 0.1 | 0.5 | IC50 [4]: 25 µM
Cc1ccccc1CN1C(=O)C2=C(CCN(Cc3ccc(F)c(F)c3F)C2)N2CCN=C12 [I/10] | > 10 | – | – | > 10 | IC50 [4]: > 10 µM
O=C1C2=C(CCN(Cc3ccccc3F)C2)N2CCN=C2N1Cc1ccc(I)cc1 [I/54] | 1.8 | – | – | – | IC50 [4]: 2 µM
NCc1cccc(CN2CCC3=C(C2)C(=O)N(Cc2ccc(I)cc2)C2=NCCN23)c1 [I/59] | 0.66 | > 0.1 | > 0.1 | – | –
Nc1ccc(CN2CCC3=C(C2)C(=O)N(Cc2ccc(I)cc2)C2=NCCN23)cc1 [I/87] | 16 | > 0.1 | > 0.1 | – | –
NCc1cccc(CN2C(=O)C3=C(CCN(Cc4ccc(C(F)(F)F)c(F)c4)C3)N3CCN=C23)c1 [I/73] | > 10 | – | – | > 10 | IC50 [4]: > 10 µM
O=C1C2=C(CCN(Cc3ccccc3)C2)N2CCN=C2N1Cc1ccc(F)c(F)c1F [I/29] | 0.66 | – | – | > 10 | IC50 [4]: > 10 µM
Cc1ccccc1CN1C(=O)C2=C(CCN(Cc3ccc(C(F)(F)F)c(F)c3)C2)N2CCN=C12 [I/43] | > 10 | > 0.1 | > 0.1 | > 10 | IC50 [4]: > 10 µM
O=C1C2=C(CCN(Cc3ccccc3)C2)N2CCN=C2N1Cc1ccccc1I [I/11] | > 10 | > 0.1 | > 0.1 | > 10 | IC50 [4]: > 10 µM
Nc1cccc(CN2C(=O)C3=C(CCN(Cc4ccccc4)C3)N3CCN=C23)c1 [I/75] | 6.1 | > 0.1 | > 0.1 | 25 | –
Cc1ccccc1CN1C(=O)C2=C(CCN(Cc3cccc(N=[N+]=[N-])c3)C2)N2CCN=C12 [I/103] | 0.27 | > 0.1 | > 0.1 | 25 | –
7-Benzyl-4-(4-(4-ferrocenyl-1H-1,2,3-triazol-1-yl)benzyl)-2,4,6,7,8,9-hexahydroimidazo[1,2-a]pyrido[3,4-e]pyrimidin-5(1H)-one [I/121] | – | – | – | – | IC50 ([2]; HTS): > 0.1 µM; IC50 ([3]; HTS): > 0.1 µM; IC50 ([5]; alamarBlue, 72 h): 2.5 µM
[N-]=[N+]=Nc1cccc(CN2CCC3=C(C2)C(=O)N(Cc2ccc(I)cc2)C2=NCCN23)c1 [I/113] | 0.25 | < 0.1 | < 0.1 | 0.25 | –
Nc1ccc(CN2CCC3=C(C2)C(=O)N(Cc2ccc(F)cc2)C2=NCCN23)cc1 [I/86] | 25 | > 0.1 | > 0.1 | – | –
Cc1ccccc1CN1C(=O)C2=C(CCN(Cc3cccc(F)c3)C2)N2CCN=C12 [I/53] | 2 | > 0.1 | > 0.1 | – | IC50 [4]: 2 µM
O=C1C2=C(CCN(Cc3ccccc3)C2)N2CCN=C2N1CCc1cccc(F)c1 [I/44] | > 10 | – | – | > 10 | IC50 [4]: > 10 µM
COc1cc(CN2C(=O)C3=C(CCN(Cc4ccc(N)cc4)C3)N3CCN=C23)cc(OC)c1OC [I/89] | 25 | > 0.1 | > 0.1 | – | –
[N-]=[N+]=Nc1ccc(CN2CCC3=C(C2)C(=O)N(Cc2ccc(F)cc2)C2=NCCN23)cc1 [I/109] | 8.9 | – | – | – | –
Cc1ccccc1CN1C(=O)C2=C(CCN(Cc3ccc(N)cc3)C2)N2CCN=C12 [I/74] | – | > 0.1 | > 0.1 | – | –

Compound | IC50 [1] [µM] | IC50 ([2]; Homo sapiens, EBC-1, HTS) [µM] | IC50 ([3]; Homo sapiens, NCI-H2228, HTS) [µM] | IC50 ([5]; Homo sapiens, A2058, 72 h) [µM] | other results
Cc1ccccc1CN1C(=O)C2=C(CCN(CCc3cccc(F)c3)C2)N2CCN=C12 [I/45] | > 10 | – | – | > 10 | IC50 [4]: > 10 µM
Nc1ccc(CN2CCC3=C(C2)C(=O)N(Cc2ccc(C(F)(F)F)cc2)C2=NCCN23)cc1 [I/81] | 21 | > 0.1 | > 0.1 | – | –
Nc1ccc(CN2CCC3=C(C2)C(=O)N(Cc2ccc(N)cc2)C2=NCCN23)cc1 [I/85] | – | > 0.1 | > 0.1 | – | –
Nc1cccc(CN2CCC3=C(C2)C(=O)N(Cc2ccc(C(F)(F)F)c(F)c2)C2=NCCN23)c1 [I/80] | – | > 0.1 | > 0.1 | – | –
[N-]=[N+]=Nc1cccc(CN2CCC3=C(C2)C(=O)N(Cc2ccc(C(F)(F)F)c(F)c2)C2=NCCN23)c1 [I/112] | 0.1 | < 0.1 | < 0.1 | 25 | –
Nc1ccc(CN2CCC3=C(C2)C(=O)N(Cc2ccc(C(F)(F)F)c(F)c2)C2=NCCN23)cc1 [I/82] | – | > 0.1 | > 0.1 | – | –
Cc1ccccc1CN1C(=O)C2=C(CCN(Cc3cc(C(F)(F)F)cc(C(F)(F)F)c3)C2)N2CCN=C12 [I/15] | – | > 0.1 | > 0.1 | – | –
Cc1ccccc1CN1C(=O)C2=C(CCN(CC3CCCN3)C2)N2CCN=C12 (stereo not drawn) [I/99] | – | > 0.1 | > 0.1 | – | –
O=C1C2=C(CCN(Cc3cc(F)cc(F)c3)C2)N2CCN=C2N1Cc1ccc([N+](=O)[O-])cc1F [I/50] | – | < 0.1 | < 0.1 | – | –
[N-]=[N+]=Nc1ccc(CN2CCC3=C(C2)C(=O)N(Cc2ccc(C(F)(F)F)c(F)c2)C2=NCCN23)cc1 [I/114] | – | > 0.1 | > 0.1 | – | –
Nc1cccc(CN2CCC3=C(C2)C(=O)N(Cc2ccc(I)cc2)C2=NCCN23)c1 [I/78] | – | > 0.1 | > 0.1 | – | –
[N-]=[N+]=Nc1ccc(CN2CCC3=C(C2)C(=O)N(Cc2cccc(F)c2)C2=NCCN23)cc1 [I/108] | – | > 0.1 | > 0.1 | – | –
O=C1C2=C(CCN(Cc3cc(C(F)(F)F)cc(C(F)(F)F)c3)C2)N2CCN=C2N1Cc1ccc(F)cc1 [I/24] | – | > 0.1 | > 0.1 | – | –
O=C1C2=C(CCN(Cc3ccccc3)C2)N2CCN=C2N1CC1CNC1 [I/90] | – | > 0.1 | > 0.1 | – | –
Cc1ccccc1CN1C(=O)C2=C(CCN(Cc3ccc(F)c(F)c3)C2)N2CCN=C12 [I/14] | – | > 0.1 | > 0.1 | – | –
O=C1C2=C(CCN(Cc3cc(F)cc(F)c3)C2)N2CCN=C2N1Cc1ccc(I)cc1 [I/38] | – | < 0.1 | < 0.1 | – | –
O=C1C2=C(CCN(Cc3cc(F)c(F)c(F)c3)C2)N2CCN=C2N1Cc1ccc(I)cc1 [I/19] | – | > 0.1 | > 0.1 | – | –
Nc1ccc(CN2CCC3=C(C2)C(=O)N(Cc2cccc(F)c2)C2=NCCN23)cc1 [I/83] | – | > 0.1 | > 0.1 | – | –
O=C1C2=C(CCN(Cc3ccc(F)cc3)C2)N2CCN=C2N1Cc1ccc(I)cc1 [I/55] | 0.76 | > 0.1 | > 0.1 | – | IC50 [4]: 1 µM
Nc1cccc(CN2C(=O)C3=C(CCN(Cc4cccc(F)c4)C3)N3CCN=C23)c1 [I/76] | – | > 0.1 | > 0.1 | – | –
O=C1C2=C(CCN(Cc3cc(F)c(F)c(F)c3)C2)N2CCN=C2N1Cc1ccc(F)cc1 [I/25] | – | > 0.1 | > 0.1 | – | –
